Assay results reported in US7473711B2, “Androgen modulators” (Pfizer Inc., priority 2004, dated 2009).

biological target: T1, androgen receptor in MDA-MB453-MMTV clone 54-19 cells (Homo sapiens, UniProt P10275); experiment: AR antagonist cell assay (MMTV-luciferase reporter, 100 pM DHT); assay type: cell-based; details: read-out: AR Cell IC50; MDA-MB453-MMTV clone 54-19, inhibition of 100 pM DHT induced luciferase, 17 hr; mean of multiple tests
T1 sequence (P10275 1-920 Q868H): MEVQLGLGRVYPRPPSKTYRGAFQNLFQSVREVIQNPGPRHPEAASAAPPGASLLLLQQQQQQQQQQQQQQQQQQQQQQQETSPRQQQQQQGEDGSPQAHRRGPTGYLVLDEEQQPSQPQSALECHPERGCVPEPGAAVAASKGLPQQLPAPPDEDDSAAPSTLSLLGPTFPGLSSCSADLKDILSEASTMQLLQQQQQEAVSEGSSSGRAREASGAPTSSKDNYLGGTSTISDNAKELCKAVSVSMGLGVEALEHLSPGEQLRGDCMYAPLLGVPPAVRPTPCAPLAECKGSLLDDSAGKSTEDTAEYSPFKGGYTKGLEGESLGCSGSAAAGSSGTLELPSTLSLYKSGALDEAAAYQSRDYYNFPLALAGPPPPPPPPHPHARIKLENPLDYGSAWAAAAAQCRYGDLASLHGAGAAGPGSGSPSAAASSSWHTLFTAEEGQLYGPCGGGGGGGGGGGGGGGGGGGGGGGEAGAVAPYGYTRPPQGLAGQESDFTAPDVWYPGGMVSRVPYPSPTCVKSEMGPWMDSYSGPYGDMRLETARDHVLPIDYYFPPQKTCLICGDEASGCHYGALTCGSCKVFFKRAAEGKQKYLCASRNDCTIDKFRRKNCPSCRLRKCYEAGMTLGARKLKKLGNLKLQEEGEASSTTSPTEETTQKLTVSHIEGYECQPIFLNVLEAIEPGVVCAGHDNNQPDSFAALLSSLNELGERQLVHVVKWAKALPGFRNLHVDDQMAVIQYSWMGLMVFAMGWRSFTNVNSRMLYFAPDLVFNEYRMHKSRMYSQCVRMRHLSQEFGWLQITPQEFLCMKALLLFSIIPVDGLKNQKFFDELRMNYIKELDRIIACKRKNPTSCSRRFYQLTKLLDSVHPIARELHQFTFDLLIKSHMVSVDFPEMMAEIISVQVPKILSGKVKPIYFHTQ
Protocol: The compounds ability to antagonize the effects of androgen on the androgen receptor were determined in a whole cell assay as described immediately below.
Experimental Procedure for AR Antagonist Cell Assay
Cell line: MDA-MB453-MMTV clone 54-19. This cell line is a stable transfected cell line with MDA-MB453 cell background (a human breast tumor cell line expressing androgen receptor). A MMTV minimal promoter containing ARE was first cloned in front of a firefly luciferase reporter gene. Then the cascade was cloned into transfection vector pUV120puro. Electroporation method was used for transfecting MDA-MB-453 cell. Puromycin resistant stable cell line was selected. Cell Culture Media and Reagents:
Culture medium: DMEM (high glucose, Gibco cat #: 11960-044), 10% FBS, and 1% L-glutamine
Plating medium: DMEM (phenol red free), 10% charcoal treated HyClone serum, 1% L-glutamine
Assay medium: DMEM (phenol red free), 1% charcoal treated HyClone serum, 1% L-glutamine, and 1% penicillin/streptomycin
3X luciferase buffer: 2% beta-mercaptoethanol, 0.6% ATP, 0.0135% luciferine in cell lysis buffer
• 1. Cells are maintained in culture medium, splitting cells when they reach 80-90% confluence • 2. To test compounds, 10,000 cells/well are plated to opaque 96 cell culture plate in 100 ul/well plating medium, culture for overnight at 37° C. in cell culture incubator • 3. Carefully remove plating medium, then add 80 ul/well of pre-warmed assay medium, add 10 ul/well testing compound (final concentration at) 1000 nM, 200 nM, 40 nM, 8 nM, 1.6 nM, and 0.32 nM), incubate at 37° C. for 30 minutes • 4. Add 10 ul/well freshly prepared DHT (final concentration at 100 pM) to each well, incubate at 37° C. for 17 hr (overnight) • 5. Add 50 ul/well 3X luciferase buffer, incubate at room temperature for 5 minutes, then count on Luminometer
The fold induction over background by 100 pM DHT in the absence of testing compounds is standardized as 100% and experimental result is expressed as percentage of inhibition by testing compounds.
The results are reported as the mean of multiple tests as described below (the numbers of tests are indicated in the footnote). N.D. denotes that the compound was not tested.

Compound | IC50 [nM]
N#Cc1ccc(OCCCCCOc2ccc(C#N)c(C(F)(F)F)c2)cc1C(F)(F)F [Example 24] | 64
COCC(COc1ccccc1)Oc1ccc(C#N)c(C(F)(F)F)c1 (stereo not drawn) [Example 27, 4-(1-Methoxymethyl-2-phenoxy-ethoxy)-2-trifluoromethyl-benzonitrile] | 19
N#Cc1ccc(OC(CO)COc2ccccc2)cc1C(F)(F)F (stereo not drawn) [Example 28, 4-(1-Hydroxymethyl-2-phenoxy-ethoxy)-2-trifluoromethyl-benzonitrile] | 69
